Results on seven molecules are retold here after patent publication US20040097529A1, “Novel use of arylethene sulfonamide derivative” (priority 2001, published 2004).

Data set [1] concerns chronic renal failure (5/6Nx) rats. The following applies: for Systolic blood pressure: tail-cuff. On the procedure: Male Wistar rats of 8 weeks of age were used in the experiment. A Rat was anesthetized with petobarbital and ⅔ of the left kidney was cut off, and one week after the right kidney was removed completely. Two weeks after the ⅚ nephrectomy, systolic blood pressure (SBP) was measured by a tail-cuff method, and the urine was collected in a metabolic cage for 24 hours to measure the urinary protein excretion. Rats were divided into 3 groups (each group: n=9) so that no difference occurred between the respective groups. Thereafter, a solvent (0.5% MC) was orally administered to the ⅚Nx-Cont. group at a dose of 5 ml/kg over 8 weeks. […] Similarly, to the ⅚Nx-Ena. group was administered 10 mg/kg/day of enalapril maleate dissolved in a solvent (0.5% MC). On the other hand, the solvent (0.5% MC) alone was orally administered to the abdominal-sectioned rats as a control group (Sham). Every 2 weeks, the urine was collected for 24 hours to measure the urinary protein excretion. Additionally, every 4 weeks, SBP was measured to examine the effect on the blood pressure.
The results were indicated by the mean±error. In comparison between the Sham group and the ⅚Nx-Cont. group, a t-test was made without correspondence, and when the significant level is less than 5%, it is considered as a significant difference. In comparison between the ⅚Nx rat-drug groups, multiple comparison (Dunnett's test) was made respectively without correspondence following the variance analysis of one-way classification. When the significant level is less than 5%, it is considered as a significant difference.

For data set [2], the system named is diabetic rats induced by streptozotocin (STZ). As to the kind of experiment: Effect on the blood parameter and urinary parameter in diabetic rats induced by streptozotocin (STZ). Type of data set: in vivo, Wistar (Crj) rats. The following applies: for Blood glucose level: enalapril maleate 10 mg/kg p.o. once a day. How it is done:
Wistar (Crj) rats of 9 weeks of age were divided into 5 groups so that there was no bias in urinary albumin excretion. To the 4 groups of the rats was administered intravenously STZ (50 mg/kg). […] After the lapse of 2, 4 and 6 weeks from the start of administration, urine was collected for 24 hours in a metabolic cage to measure a urinary parameter. The blood was collected from the tail vein after 2 and 4 weeks and from the abdominal aorta under anesthesia after 6 weeks to measure a blood parameter.
The results were indicated by the mean±error. In comparison between the Sham group and the STZ-Cont. group, a t-test was made without correspondence, and when the significant level is less than 5%, it is considered as a significant difference. In comparison between the STZ-dose groups of rats, multiple comparison (Dunnett's test) was made respectively without correspondence following the variance analysis of one-way classification. When the significant level is less than 5%, it is considered as a significant difference.

Data set [3] relates to STZ-induced diabetic rats. The following applies: cited from earlier work.
Data set [4] concerns rat's cultured mesangial cells. As to the kind of experiment: Effect of ET on the growth and hypertrophy of rat's cultured mesangial cells. The following applies: for growth and hypertrophy of rat's cultured mesangial cells: depending on the concentration of 10^−12 to 10^−7M; for concentration of the maximum reaction (growth and hypertrophy): rat's cultured mesangial cells. Type of data set: cell-based. How it is done: In measurement of the hypertrophy activity, the cells used in the measurement of the cell growth activity using an Alamar Blue reagent were washed 3 times with a phosphate buffer, to which cells was added a direct protein-determining reagent (BioRad) to measure the absorbance at 595 nm. The protein content was calculated from the analytical curve. The protein content per the unit cell number was given as the hypertrophy activity from the cell number obtained by measurement of the growth activity.
The results were indicated by the mean±error.

The mark [5] stands for this setting: 5/6Nx rats, enalapril maleate 10 mg/kg/day p.o., 0 week.
Setting [6] is: 5/6Nx rats, enalapril maleate 10 mg/kg/day p.o., 4 weeks.
[7] abbreviates: 5/6Nx rats, enalapril maleate 10 mg/kg/day p.o., 8 weeks.
Where [8] appears, read: enalapril maleate 10 mg/kg p.o.
Setting [9] is: enalapril maleate 10 mg/kg p.o., 4 weeks.
Setting [10] is: continuously injected intraperitoneally.

Counter-ions that a name gives are not always drawn. Like-named read-outs stand apart in the source and are kept apart here. Bridge positions count the residues as written; N and C are the ends. Ends that are not written are not given here.

`COc1ccccc1Oc1c(NS(=O)(=O)C=Cc2ccccc2)nc(-c2ncccn2)nc1OC` [Compound 1, N-[6-Methoxy-5-(2-methoxyphenoxy)-2-(pyrimidin-2-yl)pyrimidin-4-yl]-2-phenylethenesulfonamide]: the “death cases (mortality in renal dysfunction cases)” value in data set [1] (rat, in vivo, po, 1 mg/kg/day) is “no death was observed”.
As to `CCOC(=O)[C@H](CCc1ccccc1)N[C@@H](C)C(=O)N1CCC[C@H]1C(=O)O` [Ena., enalapril maleate], the “hypotensive effect (SBP)” value in data set [1] (5/6Nx rats, enalapril maleate 10 mg/kg/day p.o.) was “a hypotensive effect was markedly recognized”. Further, the Urinary protein excretion in data set [1] (setting [5]) is recorded as 36.9 ± 4.7 mg/day; in data set [1] (5/6Nx rats, enalapril maleate 10 mg/kg/day p.o., 2 weeks) it was 45.5 ± 10.5 mg/day; in data set [1] (setting [6]), 78.4 ± 15.3 mg/day; in data set [1] (5/6Nx rats, enalapril maleate 10 mg/kg/day p.o., 6 weeks), 165.1 ± 28.1 mg/day; in data set [1] (setting [7]) it was 261.2 ± 43.2 mg/day. Besides, the Systolic blood pressure is on record as 136 ± 4 mmHg in data set [1] (setting [5]), 129 ± 8 mmHg in data set [1] (setting [6]) and 124 ± 6 mmHg in data set [1] (setting [7]). Also, the “death cases (mortality in renal dysfunction cases)” value in data set [1] (5/6Nx rats, enalapril maleate 10 mg/kg/day p.o., 9 cases per group) is on record as 2; in data set [1] (5/6Nx rats, enalapril maleate 10 mg/kg/day p.o., 9 cases per group, listed as enalapril) it was “two death cases”. In data set [2] (setting [8]), the “inhibition of elevation of creatinine clearance (Ccr)” value is “there was no tendency that elevation of Ccr was inhibited”. In addition, the “urinary albumin excretion (UAE) change” value in data set [2] (setting [8]) is on record as “no UAE reduction was observed”. Besides, the Blood glucose level in data set [2] (2 weeks) amounted to 403.0 ± 13.0 mg/dL; in data set [2] (4 weeks), 393.2 ± 17.6 mg/dL; in data set [2] (6 weeks) it was 394.3 ± 9.6 mg/dL. For the same molecule, the Urinary albumin excretion in data set [2] (enalapril maleate 10 mg/kg p.o., 0 week) was found to be 0.46 ± 0.04 mg/day; in data set [2] (enalapril maleate 10 mg/kg p.o., 2 weeks), 0.91 ± 0.13 mg/day; in data set [2] (setting [9]) it was 0.65 ± 0.14 mg/day; in data set [2] (enalapril maleate 10 mg/kg p.o., 6 weeks), 1.27 ± 0.18 mg/day. In data set [2] (setting [9]), this molecule registered a Blood cholesterol level of 148.8 ± 11.2 mg/dL. In data set [2] (setting [9]), this molecule showed a blood triglyceride level of 407.0 ± 35.7 mg/dL.
Take `COc1ccccc1Oc1c(NS(=O)(=O)c2ccc(C(C)(C)C)cc2)nc(-c2ncccn2)nc1OCCO` [bosentan]: the plasma glucose level entry in data set [3] was “do not change the plasma glucose level”.
`COc1cc(OC)nc(O[C@H](C(=O)O)C(OC)(c2ccccc2)c2ccccc2)n1` [darusentan]: the blood triglyceride level result in data set [3] (100 mg/kg, p.o., decreased only in comparison with control group) is “decreases the blood triglyceride level”. Further, the Blood glucose level result in data set [3] (100 mg/kg, p.o.) is “does not change the blood glucose level”. Also, the microalbuminuria entry in data set [3] (100 mg/kg/day for 160 days) is listed as “has a tendency to reduce microalbuminuria”.
For “ET-3: Endothelin iso-peptide, endogenous physiologically active peptide consisting of 21 amino acids (CTCFTYKDKECVYYCHLDIIW; disulfide 1-15, 3-11; ends not checked; UniProt P14138 97-117, looked up)”, in data set [4], the “growth and hypertrophy of rat's cultured mesangial cells” value is “promoted the growth and hypertrophy”; the “concentration of the maximum reaction (growth and hypertrophy)” value is recorded as 10^−8 M.
As to “ET-1: Endothelin iso-peptide, endogenous physiologically active peptide consisting of 21 amino acids (CSCSSLMDKECVYFCHLDIIW; disulfide 1-15, 3-11; ends not checked; UniProt P05305 53-73, looked up)”, in data set [4], the “growth and hypertrophy of rat's cultured mesangial cells” value was “promoted the growth and hypertrophy”; the “concentration of the maximum reaction (growth and hypertrophy)” value is 10^−8 M.
On to FR139317, for which the plasma glucose level result in data set [3] is recorded as “do not change the plasma glucose level”. For the same molecule, in data set [3] (setting [10]), the excretion of microalbuminuria result is on record as “reduces excretion of microalbuminuria” and the “gene expression of the extracellular matrix of the glomerulus” value was “inhibits gene expression of the extracellular matrix of the glomerulus”.
